EC50 and IC50 data for 19 compounds are collected here from patent publication US11702414B2, “Thiadiazole IRAK4 inhibitors” (Gilead Sciences, Inc., priority 2018, dated 2023).

In one assay the test system is TNFα. As to the kind of experiment: IRAK4 Monocyte TNFα Cell Based Assay. To be noted: Homo sapiens, Monocyte, read-out: EC50MONO TNF HTRF. Details: species or system human. On the procedure:
IRAK4 Monocyte TNFα Cell Based Assay Procedure:
The cell suspension was then plated at a density of 5,000 cells/well onto black 384 well Greiner clear bottom plates. Plates were pre-spotted with test compounds and serially diluted in DMSO where 40 nL/well were delivered using the Echo 550 acoustic liquid dispenser (Labcyte®) for a final DMSO concentration of 0.1%. Plated cells were treated with compound for 1 hour at 37° C. Cells were then stimulated with 50 pg/ml of LPS (Sigma) excluding outside columns of plate used for unstimulated cell control wells. Cells were incubated for an additional 4 hours at 37° C. Cells were then spun out of the media and 5μl of sample were taken and analyzed for total TNFα content using the TR-FRET Human TNFα detection system (CisBio). This system utilizes two labeled antibodies (cryptate and XL665) that bind to two different epitopes of the TNFα molecule and produce FRET signal proportional to the concentration of TNFα in the sample. Detection antibodies are mixed 50:50 and 5 μL were dispensed into each well. Plates were covered with clear seals and incubated at room temp overnight. […] Percent of control was calculated as follows: % Control=100×(RatioSample−Ratio0% Stimulation)/(Ratio100% Stimulation−Ratio0% Stimulation) where unstimulated cells (0% stimulation) were the negative control and stimulated cells (100% stimulation) were used as the positive control.

The next assay deals with IRAK4 enzyme (Homo sapiens (Human), UniProt Q9NWZ3). The experiment in a line: IRAK4 Biochemical Assay (TR-FRET, STK1 KinEASE). On the procedure: IRAK4 enzyme (Carna Biosciences, Chuo-ku, Kobe, Japan) activity was measured by detecting phosphorylated peptide substrate formation using an antibody against the phosphorylated peptide substrate. This is a time-resolved fluorescence resonance energy transfer (TR-FRET) immunoassay, based on the STK1 KinEASE Assay (Cisbio, Bedford, Mass.). The assay was designed as a simple two-step, endpoint assay (a 5 μl enzyme reaction followed by 5 μl stop and detect Solution) performed in ProxiPlate-384 Plus plates (Perkin Elmer, Waltham, Mass.). […] Compounds diluted in DMSO were spotted into 384 well plates using a Labcyte® Echo 550 Liquid Handling System prior to addition of IRAK4 enzyme and peptide substrate. Reaction solutions were delivered using a Multi-Flo (Bio-Tek Instruments). The enzyme and peptide solution was incubated with compound for 15 minutes at room temp before the reaction was initiated by the addition of ATP. The standard 5 μl reaction mixture contained 500 μM ATP, 2 μM peptide (STK1 Peptide), 0.75 nM of IRAK4 in reaction buffer (50 mM HEPES, pH 7.0, 0.02% NaN3, 0.01% BSA, 0.1 mM Orthovanadate, 5 mM MgCl2, 0.025% NP-40, 1 mM DTT). After 120 min of incubation at room temperature, 5 μl of Stop and Detect Solution (1:100 Cryptate labeled anti-phosphorylated peptide antibody solution and 125 nM Tracer in a 50 mM HEPES pH 7.0 detection buffer containing sufficient EDTA) was added. The plate was then further incubated for 60 minutes at room temperature and read on Envision 2103 Multilabeled reader (PerkinElmer) with excitation/emission/FRET emission at 340 nm/615 nm/665 nm, respectively. Fluorescence intensities at 615 nm and 665 nm emission wavelengths were expressed as a ratio (665 nm/615 nm). Percentage of inhibition was calculated as below: % Inhibition=100×(RatioSample−Ratio0% Inhibition)/(Ratio100% Inhibition−Ratio0% Inhibition)
The 0% inhibition value comes from control wells lacking inhibitor.
(In general: In TR-FRET formats the signal depends on donor and acceptor labels being close together.)

Setting [1] is: human monocytes, second part of Table 2 (compounds 33-343), unit inferred.

Where two headings read alike, the source gives them in different places.

Sequence of IRAK4 enzyme (Q9NWZ3 whole entry): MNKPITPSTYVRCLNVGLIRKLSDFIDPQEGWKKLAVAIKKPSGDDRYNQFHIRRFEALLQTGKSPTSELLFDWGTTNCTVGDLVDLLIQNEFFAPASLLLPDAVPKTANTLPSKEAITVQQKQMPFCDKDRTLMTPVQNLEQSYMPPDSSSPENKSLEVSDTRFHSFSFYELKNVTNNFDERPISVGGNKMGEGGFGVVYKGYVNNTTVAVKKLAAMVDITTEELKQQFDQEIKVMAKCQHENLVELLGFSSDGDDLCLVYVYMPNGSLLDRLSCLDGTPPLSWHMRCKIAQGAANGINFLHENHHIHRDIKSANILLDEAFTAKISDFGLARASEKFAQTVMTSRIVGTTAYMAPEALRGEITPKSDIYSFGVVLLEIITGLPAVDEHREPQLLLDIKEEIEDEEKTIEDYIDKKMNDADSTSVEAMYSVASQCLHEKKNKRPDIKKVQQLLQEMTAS

Regarding `CC(=O)N1CCN(c2nnc(-c3cnc(-c4ccc5cc(C#N)cnn45)cc3NC(C)C)s2)CC1` [Compound 232, 7-(5-(5-(4-acetylpiperazin-1-yl)-1,3,4-thiadiazol-2-yl)-4-(isopropylamino)pyridin-2-yl)pyrrolo[1,2-b]pyridazine-3-carbonitrile], the EC50 with TNFα (setting [1]) is 7.4 nM. This compound also had a half-maximal inhibitory concentration (IC50) on IRAK4 enzyme of 0.62 nM.
As to `CC(=O)N1C2CC1CN(c1nnc(-c3cnc(-c4ccc5cc(C#N)cnn45)cc3NC(C)C)s1)C2` [Compound 258, 7-(5-(5-(6-acetyl-3,6-diazabicyclo[3.1.1]heptan-3-yl)-1,3,4-thiadiazol-2-yl)-4-(isopropylamino)pyridin-2-yl)pyrrolo[1,2-b]pyridazine-3-carbonitrile], the EC50 in the assay with TNFα was 5.8 nM. This compound returned an IC50 at IRAK4 enzyme of 1.26 nM.
In the case of `CC(=O)N1CC2CCC(C1)N2c1nnc(-c2cnc(-c3ccc4cc(C#N)cnn34)cc2NC(C)C)s1` [Compound 260, 7-(5-(5-(3-acetyl-3,8-diazabicyclo[3.2.1]octan-8-yl)-1,3,4-thiadiazol-2-yl)-4-(isopropylamino)pyridin-2-yl)pyrrolo[1,2-b]pyridazine-3-carbonitrile], the EC50 in the assay on TNFα stood at 15.8 nM. This compound yielded a 50% inhibitory concentration (IC50) against IRAK4 enzyme of 2.56 nM.
With `CC(=O)N1CC2CC(C1)N2c1nnc(-c2cnc(-c3ccc4cc(C#N)cnn34)cc2NC(C)C)s1` [Compound 261, 7-(5-(5-(3-acetyl-3,6-diazabicyclo[3.1.1]heptan-6-yl)-1,3,4-thiadiazol-2-yl)-4-(isopropylamino)pyridin-2-yl)pyrrolo[1,2-b]pyridazine-3-carbonitrile], the EC50 with TNFα was found to be 18.3 nM. Further, inhibition on IRAK4 enzyme was half-maximal at 0.73 nM (IC50).
With `CC(=O)N1C2CCC1CN(c1nnc(-c3cnc(-c4ccc5cc(C#N)cnn45)cc3NC3(C)COC3)s1)C2` [Compound 264, 7-(5-(5-(8-acetyl-3,8-diazabicyclo[3.2.1]octan-3-yl)-1,3,4-thiadiazol-2-yl)-4-((3-methyloxetan-3-yl)amino)pyridin-2-yl)pyrrolo[1,2-b]pyridazine-3-carbonitrile], the EC50 in the assay with TNFα came to 2.7 nM. This compound came in with an IC50 on IRAK4 enzyme of 0.59 nM.
For the compound `CC(=O)N1C[C@H]2COC[C@@H](C1)N2c1nnc(-c2cnc(-c3ccc4cc(C#N)cnn34)cc2NC(C)C)s1` [Compound 266, 7-(5-(5-((1R,5S)-7-acetyl-3-oxa-7,9-diazabicyclo[3.3.1]nonan-9-yl)-1,3,4-thiadiazol-2-yl)-4-(isopropylamino)pyridin-2-yl)pyrrolo[1,2-b]pyridazine-3-carbonitrile], the EC50 in the assay on TNFα is 3.2 nM. Besides, the half-maximal inhibitory concentration (IC50) at IRAK4 enzyme (second part of Table 2 (compounds 33-343), unit inferred, read-out: IC50 IRAK4-HTBS) turned out to be 0.49 nM.
As to `CC(=O)N1[C@@H]2COC[C@H]1CN(c1nnc(-c3cnc(-c4ccc5cc(C#N)cnn45)cc3NC3CCOCC3)s1)C2` [Compound 269, 7-(5-(5-((1R,5S)-9-acetyl-3-oxa-7,9-diazabicyclo[3.3.1]nonan-7-yl)-1,3,4-thiadiazol-2-yl)-4-((tetrahydro-2H-pyran-4-yl)amino)pyridin-2-yl)pyrrolo[1,2-b]pyridazine-3-carbonitrile], the EC50 in the assay on TNFα is 5.8 nM. This compound had an IC50 against IRAK4 enzyme of 0.8 nM.
Turning to `CC(C)Nc1cc(-c2ccc3cc(C#N)cnn23)ncc1-c1nnc(CC#N)s1` [Compound 321, 7-(5-(5-(cyanomethyl)-1,3,4-thiadiazol-2-yl)-4-(isopropylamino)pyridin-2-yl)pyrrolo[1,2-b]pyridazine-3-carbonitrile], in the assay on TNFα (setting [1]), the EC50 is 53.5 nM. The compound also came in with an IC50 against IRAK4 enzyme of 1.46 nM.
On the same counts, the results for `CC(C)Nc1cc(-c2ccc3cc(C#N)cnn23)ncc1-c1nnc(C2CCOC2)s1` (stereo not drawn) [Compound 322, 7-(4-(isopropylamino)-5-(5-(tetrahydrofuran-3-yl)-1,3,4-thiadiazol-2-yl)pyridin-2-yl)pyrrolo[1,2-b]pyridazine-3-carbonitrile] are 419 nM and 0.31 nM.
With `CC(=O)N[C@H]1CN(c2nnc(-c3cnc(-c4ccc5cc(C#N)cnn45)cc3NC(C)C)s2)CC12CC2` [Compound 323, (R)-N-(5-(5-(6-(3-cyanopyrrolo[1,2-b]pyridazin-7-yl)-4-(isopropylamino)pyridin-3-yl)-1,3,4-thiadiazol-2-yl)-5-azaspiro[2.4]heptan-7-yl)acetamide], in the assay with TNFα (setting [1]), the EC50 was found to be 3.7 nM. This compound registered an IC50 against IRAK4 enzyme of 0.62 nM.
`CC(=O)N[C@@H]1CN(c2nnc(-c3cnc(-c4ccc5cc(C#N)cnn45)cc3NC(C)C)s2)CC12CC2` [Compound 324, (S)-N-(5-(5-(6-(3-cyanopyrrolo[1,2-b]pyridazin-7-yl)-4-(isopropylamino)pyridin-3-yl)-1,3,4-thiadiazol-2-yl)-5-azaspiro[2.4]heptan-7-yl)acetamide]: the EC50 in the assay on TNFα (setting [1]) worked out at 19.1 nM. Further, the midpoint of inhibition at IRAK4 enzyme, the IC50, lay at 0.99 nM.
Take `CC(C)Nc1cc(-c2ccc3cc(C#N)cnn23)ncc1-c1nnc(-n2cccn2)s1` [Compound 325, 7-(5-(5-(1H-pyrazol-1-yl)-1,3,4-thiadiazol-2-yl)-4-(isopropylamino)pyridin-2-yl)pyrrolo[1,2-b]pyridazine-3-carbonitrile]: the EC50 in the assay on TNFα (setting [1]) came to 1000 nM. This compound returned an IC50 against IRAK4 enzyme of 8.07 nM.
Turning to `CC(C)Nc1cc(-c2ccc3cc(C#N)cnn23)ncc1-c1nnc(-n2cnc(C3CC3)c2)s1` [Compound 326, 7-(5-(5-(4-cyclopropyl-1H-imidazol-1-yl)-1,3,4-thiadiazol-2-yl)-4-(isopropylamino)pyridin-2-yl)pyrrolo[1,2-b]pyridazine-3-carbonitrile], on IRAK4 enzyme, the IC50 was 6.01 nM.
On to `CC(=O)NC1CN(c2nnc(-c3cnc(-c4ccc5cc(C#N)cnn45)cc3NC(C)C)s2)CC1(F)F` (stereo not drawn) [Compound 327, N-(1-(5-(6-(3-cyanopyrrolo[1,2-b]pyridazin-7-yl)-4-(isopropylamino)pyridin-3-yl)-1,3,4-thiadiazol-2-yl)-4,4-difluoropyrrolidin-3-yl)acetamide], for which, in the assay on TNFα (setting [1]), the EC50 stood at 10.2 nM. The same compound came in with a 50% inhibitory concentration (IC50) on IRAK4 enzyme of 0.37 nM.
On to `CC(C)Nc1cc(-c2ccc3cc(C#N)cnn23)ncc1-c1nnc(N2CC(N3CCC(F)(F)C3)C2)s1` [Compound 328, 7-(5-(5-(3-(3,3-difluoropyrrolidin-1-yl)azetidin-1-yl)-1,3,4-thiadiazol-2-yl)-4-(isopropylamino)pyridin-2-yl)pyrrolo[1,2-b]pyridazine-3-carbonitrile], for which the EC50 in the assay on TNFα (setting [1]) came out at 80.5 nM. Further, at IRAK4 enzyme, the 50% inhibitory concentration (IC50) worked out at 1.02 nM.
The like results for `CC(C)Nc1cc(-c2ccc3cc(C#N)cnn23)ncc1-c1nnc(N2CCC[C@H]2CO)s1` [Compound 329, (S)-7-(5-(5-(2-(hydroxymethyl)pyrrolidin-1-yl)-1,3,4-thiadiazol-2-yl)-4-(isopropylamino)pyridin-2-yl)pyrrolo[1,2-b]pyridazine-3-carbonitrile] were, in that order, 54.2 nM and 0.84 nM.
On the same counts, the results for `CC(=O)N[C@@H]1CCN(c2nnc(-c3cnc(-c4ccc5cc(C#N)cnn45)cc3NC(C)C)s2)C1` [Compound 330, (R)-N-(1-(5-(6-(3-cyanopyrrolo[1,2-b]pyridazin-7-yl)-4-(isopropylamino)pyridin-3-yl)-1,3,4-thiadiazol-2-yl)pyrrolidin-3-yl)acetamide] are 47.1 nM and 1.8 nM.
Consider `CC(=O)N[C@H]1CCN(c2nnc(-c3cnc(-c4ccc5cc(C#N)cnn45)cc3NC(C)C)s2)C1` [Compound 331, (S)-N-(1-(5-(6-(3-cyanopyrrolo[1,2-b]pyridazin-7-yl)-4-(isopropylamino)pyridin-3-yl)-1,3,4-thiadiazol-2-yl)pyrrolidin-3-yl)acetamide], for which, in the assay on TNFα (setting [1]), the EC50 came out at 81.4 nM. Moreover, the IC50 against IRAK4 enzyme turned out to be 1.21 nM.
The compound `CC(=O)N[C@H]1CCN(c2nnc(-c3cnc(-c4ccc5cc(C#N)cnn45)cc3NC(C)C)s2)C[C@@H]1O` [Example 64, N-((3S,4S)-1-(5-(6-(3-cyanopyrrolo[1,2-b]pyridazin-7-yl)-4-(isopropylamino)pyridin-3-yl)-1,3,4-thiadiazol-2-yl)-3-hydroxypiperidin-4-yl)acetamide] had an IC50 on IRAK4 enzyme of 0.28 nM.

As usually defined, the IC50 is the concentration at which inhibition is half-maximal.
